In the NIST ThermoML archive (doi:10.1016/j.jct.2018.12.021):
± gives the expanded uncertainty stated by the source.

Test: mn = molality of the nth substance listed, in mol/kg
Conditions: for electrical conductivity / mass density: 100 kPa, Liquid; for electrical conductivity: Direct current cell with electrodes; for mass density: Vibrating tube method; for surface tension liquid-gas: Ring tensiometer

CCCCCCCCCCCC[n+]1ccsc1.[Br-] [N-dodecylthiazolium bromide] + O
Conditions	electrical conductivity [S/m]	mass density [kg/m3]	surface tension liquid-gas [mN/m]
293.15 K, m1 = 0.00122	–	998.24 ± 1.6	–
293.15 K, m1 = 0.00157	0.0131 ± 0.00091	998.27 ± 1.6	–
293.15 K, m1 = 0.00191	–	998.29 ± 1.6	–
293.15 K, m1 = 0.00201	0.017 ± 0.0011	998.3 ± 1.6	–
293.15 K, m1 = 0.00258	–	998.33 ± 1.6	–
293.15 K, m1 = 0.00299	0.0246 ± 0.0016	998.36 ± 1.6	–
293.15 K, m1 = 0.00326	–	998.38 ± 1.6	–
293.15 K, m1 = 0.00407	0.033 ± 0.0023	998.43 ± 1.6	–
293.15 K, m1 = 0.00429	–	998.45 ± 1.6	–
293.15 K, m1 = 0.00507	0.0421 ± 0.0027	998.5 ± 1.6	–
293.15 K, m1 = 0.00548	–	998.53 ± 1.6	–
293.15 K, m1 = 0.00602	0.0483 ± 0.0031	998.57 ± 1.6	–
293.15 K, m1 = 0.00698	0.0568 ± 0.0038	998.64 ± 1.6	–
293.15 K, m1 = 0.00753	0.0603 ± 0.0034	998.68 ± 1.6	–
293.15 K, m1 = 0.00905	0.0699 ± 0.0039	998.78 ± 1.6	–
293.15 K, m1 = 0.01006	0.0754 ± 0.0039	998.85 ± 1.6	–
293.15 K, m1 = 0.01266	0.0892 ± 0.0041	999.01 ± 1.6	–
293.15 K, m1 = 0.01513	0.0958 ± 0.0039	999.17 ± 1.6	–
293.15 K, m1 = 0.01771	0.103 ± 0.0041	999.33 ± 1.6	–
293.15 K, m1 = 0.01974	0.107 ± 0.0042	999.46 ± 1.6	–
293.15 K, m1 = 0.02301	0.116 ± 0.0048	999.66 ± 1.6	–
293.15 K, m1 = 0.02601	0.123 ± 0.0052	999.84 ± 1.6	–
298.15 K, m1 = 0.00122	–	997.08 ± 1.6	–
298.15 K, m1 = 0.00157	0.0147 ± 0.001	997.1 ± 1.6	–
298.15 K, m1 = 0.00191	–	997.12 ± 1.6	–
298.15 K, m1 = 0.00201	0.0189 ± 0.0012	997.13 ± 1.6	–
298.15 K, m1 = 0.00258	–	997.16 ± 1.6	–
298.15 K, m1 = 0.00299	0.0276 ± 0.0017	997.19 ± 1.6	–
298.15 K, m1 = 0.00326	–	997.21 ± 1.6	–
298.15 K, m1 = 0.00407	0.0365 ± 0.0025	997.26 ± 1.6	–
298.15 K, m1 = 0.00429	–	997.28 ± 1.6	–
298.15 K, m1 = 0.00507	0.0469 ± 0.003	997.33 ± 1.6	–
298.15 K, m1 = 0.00548	–	997.36 ± 1.6	–
298.15 K, m1 = 0.00602	0.0535 ± 0.0035	997.39 ± 1.6	–
298.15 K, m1 = 0.00698	0.0632 ± 0.0043	997.46 ± 1.6	–
298.15 K, m1 = 0.00753	0.0671 ± 0.0038	997.5 ± 1.6	–
298.15 K, m1 = 0.00905	0.0779 ± 0.0044	997.61 ± 1.6	–
298.15 K, m1 = 0.01006	0.0845 ± 0.0045	997.68 ± 1.6	–
298.15 K, m1 = 0.01266	0.1 ± 0.0049	997.84 ± 1.6	–
298.15 K, m1 = 0.01513	0.11 ± 0.0044	998 ± 1.6	–
298.15 K, m1 = 0.01771	0.117 ± 0.0046	998.16 ± 1.6	–
298.15 K, m1 = 0.01974	0.123 ± 0.0049	998.29 ± 1.6	–
298.15 K, m1 = 0.02301	0.132 ± 0.0054	998.49 ± 1.6	–
298.15 K, m1 = 0.02601	0.14 ± 0.0059	998.67 ± 1.6	–
303.15 K, m1 = 0.00122	–	995.67 ± 1.6	–
303.15 K, m1 = 0.00157	0.0164 ± 0.0011	995.69 ± 1.6	60.2 ± 1.9
303.15 K, m1 = 0.00191	–	995.71 ± 1.6	–
303.15 K, m1 = 0.00201	0.0209 ± 0.0014	995.72 ± 1.6	57.03 ± 1.8
303.15 K, m1 = 0.00258	–	995.75 ± 1.6	–
303.15 K, m1 = 0.00299	0.0305 ± 0.0019	995.78 ± 1.6	53.96 ± 1.7
303.15 K, m1 = 0.00326	–	995.8 ± 1.6	–
303.15 K, m1 = 0.00407	0.0402 ± 0.0028	995.85 ± 1.6	49.57 ± 1.6
303.15 K, m1 = 0.00429	–	995.87 ± 1.6	–
303.15 K, m1 = 0.00507	0.0517 ± 0.0033	995.92 ± 1.6	43.38 ± 1.4
303.15 K, m1 = 0.00548	–	995.95 ± 1.6	–
303.15 K, m1 = 0.00602	0.0589 ± 0.0038	995.98 ± 1.6	41.31 ± 1.3
303.15 K, m1 = 0.00698	0.0694 ± 0.0046	996.04 ± 1.6	38.15 ± 1.2
303.15 K, m1 = 0.00753	0.0734 ± 0.0042	996.08 ± 1.6	37.87 ± 1.2
303.15 K, m1 = 0.00905	0.0859 ± 0.005	996.18 ± 1.6	32.2 ± 1.1
303.15 K, m1 = 0.01006	0.093 ± 0.0059	996.25 ± 1.6	32.54 ± 1.1
303.15 K, m1 = 0.01266	0.117 ± 0.0059	996.42 ± 1.6	32.07 ± 1.1
303.15 K, m1 = 0.01513	0.125 ± 0.0046	996.57 ± 1.6	32.43 ± 1.1
303.15 K, m1 = 0.01771	0.132 ± 0.005	996.72 ± 1.6	31.44 ± 1
303.15 K, m1 = 0.01974	0.138 ± 0.0054	996.84 ± 1.6	31.87 ± 1
303.15 K, m1 = 0.02301	0.148 ± 0.006	997.04 ± 1.6	–
303.15 K, m1 = 0.02601	0.156 ± 0.0066	997.2 ± 1.6	32.42 ± 1.1
308.15 K, m1 = 0.00122	–	994.05 ± 1.6	–
308.15 K, m1 = 0.00157	0.018 ± 0.0012	994.07 ± 1.6	–
308.15 K, m1 = 0.00191	–	994.09 ± 1.6	–
308.15 K, m1 = 0.00201	0.0229 ± 0.0015	994.1 ± 1.6	–
308.15 K, m1 = 0.00258	–	994.14 ± 1.6	–
308.15 K, m1 = 0.00299	0.0334 ± 0.0021	994.17 ± 1.6	–
308.15 K, m1 = 0.00326	–	994.18 ± 1.6	–
308.15 K, m1 = 0.00407	0.0443 ± 0.003	994.24 ± 1.6	–
308.15 K, m1 = 0.00429	–	994.25 ± 1.6	–
308.15 K, m1 = 0.00507	0.0563 ± 0.0036	994.3 ± 1.6	–
308.15 K, m1 = 0.00548	–	994.33 ± 1.6	–
308.15 K, m1 = 0.00602	0.0646 ± 0.0042	994.36 ± 1.6	–
308.15 K, m1 = 0.00698	0.0757 ± 0.005	994.42 ± 1.6	–
308.15 K, m1 = 0.00753	0.0803 ± 0.0054	994.46 ± 1.6	–
308.15 K, m1 = 0.00905	0.0978 ± 0.0066	994.55 ± 1.6	–
308.15 K, m1 = 0.01006	0.107 ± 0.0064	994.63 ± 1.6	–
308.15 K, m1 = 0.01266	0.131 ± 0.0064	994.78 ± 1.6	–
308.15 K, m1 = 0.01513	0.141 ± 0.0053	994.93 ± 1.6	–
308.15 K, m1 = 0.01771	0.148 ± 0.0057	995.08 ± 1.6	–
308.15 K, m1 = 0.01974	0.156 ± 0.0059	995.2 ± 1.6	–
308.15 K, m1 = 0.02301	0.165 ± 0.0063	995.4 ± 1.6	–
308.15 K, m1 = 0.02601	0.174 ± 0.0075	995.56 ± 1.6	–
313.15 K, m1 = 0.00122	–	992.22 ± 1.6	–
313.15 K, m1 = 0.00157	0.0197 ± 0.0013	992.24 ± 1.6	–
313.15 K, m1 = 0.00191	–	992.26 ± 1.6	–
313.15 K, m1 = 0.00201	0.025 ± 0.0016	992.27 ± 1.6	–
313.15 K, m1 = 0.00258	–	992.3 ± 1.6	–
313.15 K, m1 = 0.00299	0.0366 ± 0.0023	992.33 ± 1.6	–
313.15 K, m1 = 0.00326	–	992.35 ± 1.6	–
313.15 K, m1 = 0.00407	0.0485 ± 0.0032	992.4 ± 1.6	–
313.15 K, m1 = 0.00429	–	992.42 ± 1.6	–
313.15 K, m1 = 0.00507	0.0614 ± 0.0039	992.46 ± 1.6	–
313.15 K, m1 = 0.00548	–	992.49 ± 1.6	–
313.15 K, m1 = 0.00602	0.0703 ± 0.0047	992.52 ± 1.6	–
313.15 K, m1 = 0.00698	0.0838 ± 0.0062	992.58 ± 1.6	–
313.15 K, m1 = 0.00753	0.0904 ± 0.0063	992.62 ± 1.6	–
313.15 K, m1 = 0.00905	0.11 ± 0.0075	992.72 ± 1.6	–
313.15 K, m1 = 0.01006	0.122 ± 0.0071	992.79 ± 1.6	–
313.15 K, m1 = 0.01266	0.146 ± 0.0072	992.94 ± 1.6	–
313.15 K, m1 = 0.01513	0.159 ± 0.0065	993.07 ± 1.6	–
313.15 K, m1 = 0.01771	0.171 ± 0.0066	993.22 ± 1.6	–
313.15 K, m1 = 0.01974	0.177 ± 0.0064	993.33 ± 1.6	–
313.15 K, m1 = 0.02301	0.187 ± 0.007	993.52 ± 1.6	–
313.15 K, m1 = 0.02601	0.196 ± 0.0075	993.68 ± 1.6	–
